For series [1], the target named is Voltage-gated potassium channel, KQT; KCNQ2(Kv7.2)/KCNQ3(Kv7.3) (Homo sapiens) (UniProt O43526+O43525). The series can be described thus: (§1) Activation of human Kv7.2/7.3 expressed in CHOK1 cells. The note with it: CHO-K1. The class given is cell-based.
Series [2] concerns the target Voltage-gated potassium channel, KQT; KCNQ2(Kv7.2)/KCNQ3(Kv7.3) (Homo sapiens, UniProt O43525+O43526). The description is as §1. The class given is cell-based, CHO-K1.
The target of series [3] is T1, Potassium voltage-gated channel subfamily KQT member 4 (Homo sapiens, UniProt P56696).
T1 sequence (P56696 whole entry): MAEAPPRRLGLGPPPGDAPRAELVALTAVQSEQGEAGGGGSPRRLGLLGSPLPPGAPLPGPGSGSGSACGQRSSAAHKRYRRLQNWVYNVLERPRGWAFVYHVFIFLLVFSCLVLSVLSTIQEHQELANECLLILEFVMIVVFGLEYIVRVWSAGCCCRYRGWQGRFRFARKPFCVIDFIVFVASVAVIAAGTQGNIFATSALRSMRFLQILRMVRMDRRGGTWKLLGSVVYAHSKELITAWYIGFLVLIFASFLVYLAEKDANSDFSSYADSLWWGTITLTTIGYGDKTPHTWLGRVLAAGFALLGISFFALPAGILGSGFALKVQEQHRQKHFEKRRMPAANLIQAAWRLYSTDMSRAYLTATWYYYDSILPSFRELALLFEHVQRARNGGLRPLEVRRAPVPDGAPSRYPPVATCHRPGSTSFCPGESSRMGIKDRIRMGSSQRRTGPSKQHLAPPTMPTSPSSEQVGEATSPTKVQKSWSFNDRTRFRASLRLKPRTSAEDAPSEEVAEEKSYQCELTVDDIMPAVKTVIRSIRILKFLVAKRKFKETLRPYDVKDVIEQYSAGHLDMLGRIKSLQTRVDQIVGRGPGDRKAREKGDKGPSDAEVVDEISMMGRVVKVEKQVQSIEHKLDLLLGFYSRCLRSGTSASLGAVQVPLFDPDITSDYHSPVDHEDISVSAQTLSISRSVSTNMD
The series can be described thus: Activation of human Kv7.4 expressed in CHOK1 cells. The class given is cell-based, CHO-K1.

The target of series [4] is Voltage-gated potassium channel, IKs; KCNQ1(Kv7.1)/KCNE1(MinK) (Homo sapiens, UniProt P15382+P51787). As to the kind of experiment: Activation of human Kv7.1/KCNE1 expressed in CHOK1 cells. The class given is cell-based, CHO-K1.
Chain of Voltage-gated potassium channel, IKs; KCNQ1(Kv7.1)/KCNE1(MinK) (P51787 whole entry): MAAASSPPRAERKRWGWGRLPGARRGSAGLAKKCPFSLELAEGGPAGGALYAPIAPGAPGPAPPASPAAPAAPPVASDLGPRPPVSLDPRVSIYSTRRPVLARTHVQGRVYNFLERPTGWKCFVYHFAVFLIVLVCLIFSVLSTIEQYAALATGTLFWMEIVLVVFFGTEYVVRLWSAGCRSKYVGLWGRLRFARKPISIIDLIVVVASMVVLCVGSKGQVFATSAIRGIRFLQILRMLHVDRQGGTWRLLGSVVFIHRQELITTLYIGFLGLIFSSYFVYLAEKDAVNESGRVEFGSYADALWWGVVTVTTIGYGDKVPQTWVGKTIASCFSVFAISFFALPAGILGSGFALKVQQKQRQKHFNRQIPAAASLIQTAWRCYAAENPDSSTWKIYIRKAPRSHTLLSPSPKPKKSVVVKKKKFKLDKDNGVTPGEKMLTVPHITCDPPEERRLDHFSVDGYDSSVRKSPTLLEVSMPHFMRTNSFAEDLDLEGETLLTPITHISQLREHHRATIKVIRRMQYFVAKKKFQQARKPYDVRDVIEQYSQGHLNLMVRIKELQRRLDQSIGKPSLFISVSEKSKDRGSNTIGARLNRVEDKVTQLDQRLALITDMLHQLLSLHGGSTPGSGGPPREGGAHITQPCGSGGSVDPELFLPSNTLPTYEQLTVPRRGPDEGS
The target in series [5] is Potassium voltage-gated channel subfamily KQT member 2/member 3 (Rattus norvegicus, UniProt O88943+O88944). As to the kind of experiment: Activation of rat Kv7.2/7.3 expressed in CHOK1 cells. The class given is cell-based, CHO-K1.
Chain of Potassium voltage-gated channel subfamily KQT member 2/member 3 (O88943 whole entry): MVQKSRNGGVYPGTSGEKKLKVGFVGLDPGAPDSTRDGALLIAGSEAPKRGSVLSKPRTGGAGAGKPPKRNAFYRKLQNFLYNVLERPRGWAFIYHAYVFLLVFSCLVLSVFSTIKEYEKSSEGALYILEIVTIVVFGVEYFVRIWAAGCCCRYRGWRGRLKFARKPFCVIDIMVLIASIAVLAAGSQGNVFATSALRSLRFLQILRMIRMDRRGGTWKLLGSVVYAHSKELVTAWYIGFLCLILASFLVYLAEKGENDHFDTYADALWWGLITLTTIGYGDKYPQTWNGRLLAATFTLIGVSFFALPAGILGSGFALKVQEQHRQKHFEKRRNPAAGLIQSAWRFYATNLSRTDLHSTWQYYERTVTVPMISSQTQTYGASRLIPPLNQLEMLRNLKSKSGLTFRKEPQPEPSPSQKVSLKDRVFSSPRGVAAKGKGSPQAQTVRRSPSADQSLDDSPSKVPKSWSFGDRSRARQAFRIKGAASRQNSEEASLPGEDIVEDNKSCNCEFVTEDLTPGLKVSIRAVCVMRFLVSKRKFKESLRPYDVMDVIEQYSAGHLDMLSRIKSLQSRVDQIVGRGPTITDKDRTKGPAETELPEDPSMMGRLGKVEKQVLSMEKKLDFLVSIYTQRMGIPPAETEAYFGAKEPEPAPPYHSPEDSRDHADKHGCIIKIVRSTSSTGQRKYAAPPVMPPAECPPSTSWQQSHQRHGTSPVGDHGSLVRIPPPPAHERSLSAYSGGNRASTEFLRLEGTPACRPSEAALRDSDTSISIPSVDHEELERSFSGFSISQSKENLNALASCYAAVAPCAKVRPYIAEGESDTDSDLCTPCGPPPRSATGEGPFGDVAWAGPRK
Chain of Potassium voltage-gated channel subfamily KQT member 2/member 3 (O88944 whole entry): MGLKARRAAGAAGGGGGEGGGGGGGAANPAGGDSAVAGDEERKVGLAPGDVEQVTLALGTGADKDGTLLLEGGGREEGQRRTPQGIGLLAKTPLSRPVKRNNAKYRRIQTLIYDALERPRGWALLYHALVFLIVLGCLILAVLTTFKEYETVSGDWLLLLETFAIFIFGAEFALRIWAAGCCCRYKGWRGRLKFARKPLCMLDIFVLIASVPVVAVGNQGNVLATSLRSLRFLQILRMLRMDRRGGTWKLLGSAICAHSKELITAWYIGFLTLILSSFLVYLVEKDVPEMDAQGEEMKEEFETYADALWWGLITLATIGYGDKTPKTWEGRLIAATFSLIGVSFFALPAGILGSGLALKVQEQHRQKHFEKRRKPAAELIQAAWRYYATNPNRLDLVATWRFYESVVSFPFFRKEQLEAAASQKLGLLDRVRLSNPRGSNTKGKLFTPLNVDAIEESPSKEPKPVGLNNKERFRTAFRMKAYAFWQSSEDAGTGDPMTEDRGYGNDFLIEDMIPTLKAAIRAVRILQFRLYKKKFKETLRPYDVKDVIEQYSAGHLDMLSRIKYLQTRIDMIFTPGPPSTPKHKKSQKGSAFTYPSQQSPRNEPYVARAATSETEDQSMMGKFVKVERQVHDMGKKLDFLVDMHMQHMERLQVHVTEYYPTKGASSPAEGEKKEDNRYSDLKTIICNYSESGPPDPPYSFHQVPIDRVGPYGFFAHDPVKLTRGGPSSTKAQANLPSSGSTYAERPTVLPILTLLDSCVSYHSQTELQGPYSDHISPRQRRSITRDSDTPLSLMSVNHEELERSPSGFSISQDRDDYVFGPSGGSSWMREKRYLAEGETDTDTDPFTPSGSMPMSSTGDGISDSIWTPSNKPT
Series [6] in a line: Activation of rat Kv7.3/7.5 expressed in CHOK1 cells. The class given is cell-based. The note with it: CHO-K1.
For series [7], the target named is T2, Potassium voltage-gated channel subfamily KQT member 4 (Homo sapiens) (UniProt P56696).
T2 sequence (whole entry): T1 sequence (P56696 whole entry)
As to the kind of experiment: Activation of human Kv7.4 expressed in CHOK1 cells assessed as increase in current amplitude relative to control. The note with it: CHO-K1. The class given is cell-based.

Series [8] deals with Voltage-gated potassium channel KCNQ3/KCNQ5 (Homo sapiens, UniProt O43525+Q9NR82). As to the kind of experiment: Activation of human Kv7.3/7.5 expressed in CHOK1 cells assessed as increase in current amplitude relative to control. The class given is cell-based. The note with it: CHO-K1.
Series [9] has as its target T3, Potassium voltage-gated channel subfamily KQT member 4 (Rattus norvegicus) (UniProt Q9JK96).
T3 sequence (whole entry): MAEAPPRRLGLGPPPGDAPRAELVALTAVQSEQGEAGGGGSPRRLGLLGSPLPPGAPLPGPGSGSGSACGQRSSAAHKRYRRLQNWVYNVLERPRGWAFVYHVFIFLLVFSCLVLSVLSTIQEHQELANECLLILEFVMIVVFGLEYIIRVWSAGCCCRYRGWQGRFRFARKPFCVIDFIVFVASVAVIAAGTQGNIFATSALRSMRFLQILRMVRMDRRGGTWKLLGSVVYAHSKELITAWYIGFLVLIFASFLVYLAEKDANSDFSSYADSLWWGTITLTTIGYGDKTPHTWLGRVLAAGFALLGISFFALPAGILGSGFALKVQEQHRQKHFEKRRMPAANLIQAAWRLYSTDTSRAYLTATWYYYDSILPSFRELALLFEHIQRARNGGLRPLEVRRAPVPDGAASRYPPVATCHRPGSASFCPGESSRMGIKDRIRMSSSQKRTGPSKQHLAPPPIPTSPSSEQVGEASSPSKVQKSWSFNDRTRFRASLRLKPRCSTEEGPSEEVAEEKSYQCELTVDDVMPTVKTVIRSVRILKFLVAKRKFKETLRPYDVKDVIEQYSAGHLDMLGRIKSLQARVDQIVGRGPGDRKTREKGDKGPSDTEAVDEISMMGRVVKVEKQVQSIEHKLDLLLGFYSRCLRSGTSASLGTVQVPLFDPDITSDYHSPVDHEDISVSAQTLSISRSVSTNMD
As to the kind of experiment: Activation of rat Kv7.4 expressed in CHOK1 cells assessed as increase in current amplitude relative to control. The class given is cell-based. The note with it: CHO-K1.

Series [10] deals with CHO-K1. As to the kind of experiment: Activation of rat Kv7.3/7.5 expressed in CHOK1 cells assessed as increase in current amplitude relative to control. The class given is cell-based.
The nature of series [11]: Intrinsic clearance in human liver microsomes measured over 1 hr in presence of NADPH regenerating system. The class given is ADME. The note with it: read-out: CLH. A general note: Liver microsomes are vesicles of endoplasmic reticulum, rich in cytochrome P450 enzymes.
The test system of series [12] is MDCK. As to the kind of experiment: Efflux ratio of permeability from basolateral to apical over apical to basolateral side in MDCK cells transfected with MDR1. The class given is ADME, cell-based, Canis lupus familiaris. The settings on record: dog.
The subject of series [13] is Plasma. As to the kind of experiment: Unbound plasma concentration in Sprague-Dawley rat at 3 mg/kg, sc administered at 30 mins by LC-MS/MS analysis. The class given is ADME, organism-based. The settings on record: in vivo, 0.5 h.
In series [14] the test system is Plasma. The series can be described thus: Unbound plasma concentration in Sprague-Dawley rat at 30 mg/kg, sc administered at 30 mins by LC-MS/MS analysis. The class given is ADME, organism-based. The note with it: in vivo, 0.5 h.
The subject of series [15] is Brain. As to the kind of experiment: Fraction unbound in Sprague-Dawley rat brain at 3 mg/kg, sc administered at 30 mins by LC-MS/MS analysis. The class given is ADME, organism-based. The note with it: in vivo, 0.5 h.
For series [16], the system named is Brain. The series can be described thus: Fraction unbound in Sprague-Dawley rat brain at 10 mg/kg, sc administered at 30 mins by LC-MS/MS analysis. The class given is ADME, organism-based. The note with it: in vivo, 0.5 h.
Series [17] relates to Plasma. As to the kind of experiment: Unbound plasma concentration in Sprague-Dawley rat at 1 mg/kg, po administered at 60 mins by LC-MS/MS analysis. The class given is ADME, organism-based. The settings on record: in vivo, 1 h.
The test system of series [18] is Plasma. As to the kind of experiment: Unbound plasma concentration in Sprague-Dawley rat at 3 mg/kg, po administered at 60 mins by LC-MS/MS analysis. The class given is ADME, organism-based. The note with it: in vivo, 1 h.
The test system of series [19] is Brain. As to the kind of experiment: Fraction unbound in Sprague-Dawley rat brain at 10 mg/kg, po administered at 60 mins by LC-MS/MS analysis. The class given is ADME, organism-based. The note with it: in vivo, 1 h.
Series [20] in a line: Ratio of free drug level in plasma to brain in Sprague-Dawley rat at 30 mg/kg, po administration at 60 mins. The class given is ADME, organism-based. The note with it: in vivo, 1 h.
The subject of series [21] is Rattus norvegicus. As to the kind of experiment: Anticonvulsant activity in Sprague-Dawley rat assessed as protection against maximal electroshock-induced convulsion at 3 mg/kg, sc administered 30 mins prior to application of shock via corneal electrodes relative to control. The class given is functional. (In general: In the maximal electroshock model the usual endpoint is tonic extension of the hind limbs.)

The test system of series [22] is Rattus norvegicus. The series can be described thus: Anticonvulsant activity in Sprague-Dawley rat assessed as protection against maximal electroshock-induced convulsion at 1 mg/kg, po administered 60 mins prior to application of shock via corneal electrodes relative to control. The class given is functional.
Series [23] can be described thus: Fraction unbound in rat brain by equilibrium dialysis method. The class given is ADME, tissue-based. In general terms: In equilibrium dialysis free small molecules cross a membrane that holds back macromolecules.

The structures appear in SMILES notation.

Chain of Voltage-gated potassium channel, KQT; KCNQ2(Kv7.2)/KCNQ3(Kv7.3) (O43526 whole entry): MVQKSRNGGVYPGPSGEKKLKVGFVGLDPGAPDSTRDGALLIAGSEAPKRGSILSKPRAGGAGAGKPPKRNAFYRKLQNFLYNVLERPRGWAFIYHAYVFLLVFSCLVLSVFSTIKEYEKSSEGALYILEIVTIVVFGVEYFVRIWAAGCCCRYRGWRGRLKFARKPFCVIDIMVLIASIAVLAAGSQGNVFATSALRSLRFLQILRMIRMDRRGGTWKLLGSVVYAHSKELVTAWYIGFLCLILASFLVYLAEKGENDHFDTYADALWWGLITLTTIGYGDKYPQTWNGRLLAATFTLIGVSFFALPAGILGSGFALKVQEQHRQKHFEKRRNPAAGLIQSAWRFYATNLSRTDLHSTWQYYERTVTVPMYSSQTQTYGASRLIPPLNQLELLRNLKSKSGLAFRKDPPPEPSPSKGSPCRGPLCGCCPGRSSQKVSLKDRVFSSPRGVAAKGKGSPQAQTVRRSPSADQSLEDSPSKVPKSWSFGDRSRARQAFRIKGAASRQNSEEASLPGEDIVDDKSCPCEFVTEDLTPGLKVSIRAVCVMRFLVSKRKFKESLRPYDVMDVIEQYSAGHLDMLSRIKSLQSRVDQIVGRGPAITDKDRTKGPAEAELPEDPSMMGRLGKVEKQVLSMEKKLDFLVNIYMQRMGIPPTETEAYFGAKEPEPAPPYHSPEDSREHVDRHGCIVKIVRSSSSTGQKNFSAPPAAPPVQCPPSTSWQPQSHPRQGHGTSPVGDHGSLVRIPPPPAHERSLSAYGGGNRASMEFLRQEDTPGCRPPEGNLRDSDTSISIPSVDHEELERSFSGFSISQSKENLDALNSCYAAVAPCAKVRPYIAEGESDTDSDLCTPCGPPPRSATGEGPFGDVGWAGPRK
Chain of Voltage-gated potassium channel, KQT; KCNQ2(Kv7.2)/KCNQ3(Kv7.3) (O43525 whole entry): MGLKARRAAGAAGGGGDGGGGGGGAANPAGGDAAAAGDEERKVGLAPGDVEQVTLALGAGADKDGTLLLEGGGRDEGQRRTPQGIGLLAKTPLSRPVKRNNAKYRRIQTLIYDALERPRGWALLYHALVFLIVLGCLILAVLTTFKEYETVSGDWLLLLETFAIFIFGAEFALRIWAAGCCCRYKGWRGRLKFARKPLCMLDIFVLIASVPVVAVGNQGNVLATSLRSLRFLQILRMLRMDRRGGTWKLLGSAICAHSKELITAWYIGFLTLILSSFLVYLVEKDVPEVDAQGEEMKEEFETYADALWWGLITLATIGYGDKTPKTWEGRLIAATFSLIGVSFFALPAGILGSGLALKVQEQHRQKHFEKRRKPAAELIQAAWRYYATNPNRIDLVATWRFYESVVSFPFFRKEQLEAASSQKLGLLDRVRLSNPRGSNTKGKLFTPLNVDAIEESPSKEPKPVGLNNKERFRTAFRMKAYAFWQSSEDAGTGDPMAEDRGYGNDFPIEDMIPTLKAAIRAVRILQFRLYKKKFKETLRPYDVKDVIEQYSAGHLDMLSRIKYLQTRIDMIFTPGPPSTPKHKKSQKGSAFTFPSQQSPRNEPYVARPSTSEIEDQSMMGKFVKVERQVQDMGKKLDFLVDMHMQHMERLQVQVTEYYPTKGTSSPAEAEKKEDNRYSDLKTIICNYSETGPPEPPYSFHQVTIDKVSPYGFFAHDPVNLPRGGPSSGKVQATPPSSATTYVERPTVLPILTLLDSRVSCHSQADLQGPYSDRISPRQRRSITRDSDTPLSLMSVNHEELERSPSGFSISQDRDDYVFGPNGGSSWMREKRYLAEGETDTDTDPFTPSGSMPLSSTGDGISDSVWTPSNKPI

`COc1nc(N2CCC(OC)CC2)nc(OC)c1NC(=O)CC(C)(C)C` came in with a max activation in series [1] of 147%. Further, the EC50 is 334 nM in series [2]; 625 nM in series [3]; > 100000 nM in series [4]; 294 nM in series [5]; 1330 nM in [6]. In addition, the Activity in series [7] turned out to be 163%; in [8] it was 246%; in [9] it was 161%; in [10], 207%; in series [21] it was 100%; in series [22], 0%. Besides, the CLint scaled in series [11] worked out at 15.6 mL/min/kg. Besides, the Ratio is 1.25 in series [12] and 0.48 in series [20]. For the same molecule, the “Cp(f)” value in series [13] amounted to 151 nM; in [14] it was 305 nM; in series [17], 15 nM; in series [18], 109 nM. For the same molecule, the results for the “Drug uptake(free)” value in [15], in [16] and in [19] were 90 nM, 125 nM and 83 nM, respectively. For the same molecule, in [23], the unbound share (fraction unbound) is 0.13.

Broadly, the EC50 is the concentration needed to bring the measured effect to its halfway point. In general, fraction unbound refers to the share of the substance not bound to proteins or other matrix.

The record behind these values is ChEMBL document CHEMBL3621090, “Discovery of a novel Kv7 channel opener as a treatment for epilepsy” (Bioorg Med Chem Lett, 2015).
